Laboratory results published in patent publication US20250017979A1, “METHODS AND COMPOSITIONS FOR IMPROVING IN VIVO SURVIVAL OF MIDBRAIN DOPAMINE NEURONS” (MEMORIAL SLOAN-KETTERING CANCER CENTER, priority 2022, published 2025).

Key:
[1] = tested on: NURR1::H2B-GFP sorted neurons; assay: TNFα / adalimumab treatment of day 25 NURR1::H2B-GFP sorted dopamine neurons in vitro (immunofluorescence, western blot, qRT-PCR); assay type: cell-based, human; settings: co-treatment with TNFα and adalimumab (10 μg/ml), 24 hours
Method: hESC differentiation toward DA neurons. Midbrain dopaminergic neuron differentiation was performed using H9 hESCs, which include Nurr1::GFP. hESCs were grown on VTN-N (Thermo Fisher Scientific)-coated 6-well plates in E8-essential medium. Cells were maintained at 37° C., 5% CO2. hESCs were differentiated with an optimized protocol from a previously reported study (Kim et al., 2021, Cell Stem Cell February 4; 28 (2): 343-355.c5; Riessland et al., 2019, Cell Stem Cell. October 3; 25 (4): 514-530.c8). At day 25 of differentiation from hPSCs iCas9/NURR1::GFP hPSC lines containing sgRNA-pool libraries and sgRNA for dTomato and p53 hPSCs, GFP and dTomato expressed dopamine neurons were sorted using flow cytometry associated cell sorting (FACS). […] TNF-α neutralizing antibody was employed either to co-injection (1 mg/ml) or in vitro cultured dopamine neuron (10 μg/ml).

[2] = tested on: CD marker sorted dopamine neurons; assay: 1-month survival of CD49e-low/CD184-high sorted dopamine neuron grafts in striatum of NSG mice, co-injection, stereology; assay type: in vivo
Method: hESC differentiation toward DA neurons. Midbrain dopaminergic neuron differentiation was performed using H9 hESCs, which include Nurr1::GFP. hESCs were grown on VTN-N (Thermo Fisher Scientific)-coated 6-well plates in E8-essential medium. Cells were maintained at 37° C., 5% CO2. hESCs were differentiated with an optimized protocol from a previously reported study (Kim et al., 2021, Cell Stem Cell February 4; 28 (2): 343-355.c5; Riessland et al., 2019, Cell Stem Cell. October 3; 25 (4): 514-530.c8). At day 25 of differentiation from hPSCs iCas9/NURR1::GFP hPSC lines containing sgRNA-pool libraries and sgRNA for dTomato and p53 hPSCs, GFP and dTomato expressed dopamine neurons were sorted using flow cytometry associated cell sorting (FACS). The sorted hPSCs were either injected into mice or cultured for subsequent experiments until use. Furthermore, double sorting approach with CD49e-low and CD184-high was applied to enrich post-mitotic dopamine neuron at day 25 differentiation derived from hPSC using FACS, and sorted cells were used for transplantation and in vitro culture. TNF-α neutralizing antibody was employed either to co-injection (1 mg/ml) or in vitro cultured dopamine neuron (10 μg/ml).
Intracranial transplantation. hESCs-derived DA neurons that were sorted based on either NURR1::H2B-GFP or CD49e low and CD184 high were resuspended in 100,000+ cells/μL in neurobasal medium with 200 mM L-glutamine and 100 mM ascorbic acid (AA) transplantation medium (without human albumin or kedbumin 25%). […]
Stereological analysis. For short-term survival studies, unbiased stercological counts of NURR1::H2B-GFP DA neurons within the striatum (AP+0.5, ML+/−1.8, DV −3.4 to −3.3 from dura) were performed using stereological principles and analyzed with StereoInvestigator software (Microbrightfield, Williston, VT, USA), as previously described. […] For each tissue section analyzed, section thickness was assessed in each sampling site and guard zones of 1 μm were used at the top and bottom of each section. […]

[3] = tested on: CD marker sorted dopamine neurons; assay: Histology and stereology of dopamine neuron grafts at 6 months in 6-OHDA mice; assay type: in vivo, NSG mice
Method: (§1) 6-OHDA mouse model. Briefly, adult female and male NSG mice (6-12 weeks) were anesthetized with 1%-2% isoflurane mixed in oxygen. 1 μL 6-OHDA (3 mg/ml, in saline with 1% ascorbic acid) was directly injected into the right side of substantial nigra (anterior-posterior [AP]=−2.9 mm, lateral [ML]=1.1 mm, vertical [DV]=4.5 mm, from dura) with rate of 0.5-1 μL per minute to generate unilateral toxin Parkinsonian mouse model. Animals with amphetamine-induced rotation at >6 rotations per min were selected for cell transplantation 4 weeks after 6-OHDA-lesion surgery. Animals were randomly grouped and transplanted with CD sorted neurons vs. CD sorted neurons+adalimumab vs. PBS (sham surgery control).
Immunohistochemistry. Histology on tissues from mice was performed on frozen sections from xenografts. Mice were anesthetized with pentobarbital and transcardically perfused using heparinized (10 U/mL) PBS (pH 7.4), followed by 4% paraformaldehyde in PBS. The liquid is administered using peristaltic pump to control the rate of the solution delivery to the system. Tissues were post-fixed in ice cold 4% paraformaldehyde for 18 hours sharp and transferred to 30% sucrose until the tissue sink (typically 3-6 days post-), followed by snap freezing in O.C.T (Fisher Scientific, Pittsburgh, PA) or Neg-50 (Thermo Scientific). Brain tissues are all sectioned in 30 μm thick coronal sections using a cryostat and mounted onto a Superfrost plus microscope slides (Fisher Scientific). All the slides are stored at −80° C. for long-term until use. To process for immunolabeling, tissues are washed twice with 1×PBS, followed by permeabilization in 0.5% Triton X-100 in PBS for 10 minutes. Living cells in culture were directly fixed in 4% paraformaldehyde for 18 min, followed by 10 min permeabilization in 0.5% Triton X-100 in PBS. For labeling, cells or tissue sections were immunostained with primary antibodies of interest in 2% BSA in 0.25% Triton X-100 in PBS at 4° C. overnight. Next day appropriate Alexa Fluor secondary antibodies are conjugated at room temperature for 1 hr at a dilution of 1:1,000. Nuclei were counterstained by DAPI.
Stereological analysis. For short-term survival studies, unbiased stercological counts of NURR1::H2B-GFP DA neurons within the striatum (AP+0.5, ML+/−1.8, DV −3.4 to −3.3 from dura) were performed using stereological principles and analyzed with StereoInvestigator software (Microbrightfield, Williston, VT, USA), as previously described. […] For each tissue section analyzed, section thickness was assessed in each sampling site and guard zones of 1 μm were used at the top and bottom of each section. […] For analysis, at least 2-8 sections were evaluated for analysis. […]

[4] = tested on: amphetamine-induced rotation behaviors; assay: D-amphetamine induced rotation assay in unilateral 6-OHDA lesioned PD mouse model after grafting; assay type: in vivo, NSG mice
Method: as §1
d-amphetamine induced rotation behavior assays. Amphetamine-induced rotation tests were performed twice before transplantation, and 1, 2, 3, 4, 5, 6 months after transplantation. The mice were injected intraperitoneally with a d-amphetamine in saline (Sigma, 10 mg/kg). After 10 minutes, the rotation

rodent GSK3β homologs = settings: cited from earlier work
[5] = 6 months old graft, TH+ population
[6] = 6 months post transplantation, vs PBS co-injection

| Compound | TNFα-induced inductions of p53 and p53 downstream genes (p21, PUMA) [1] | Stereological counts of NURR1::GFP+ cells ([2]; 1 month post grafting, mean and S.E.M, n=5, p=0.01 vs PBS) | volume of the graft ([2]; 1 month post grafting, per 100,000 cells, mean, n=5, p=0.0085) [mm^3] | survival of CD marker sorted dopamine neurons in vivo post-transplantation ([2]; co-injection (1 mg/ml), vs PBS) | fraction of CALB1 expressing A10 dopamine neuron subtype [3, 5] | proportion of ALDH1A1+ A9 mDA neuron subtype [3, 5] | overall graft size [3, 6] | total numbers of surviving dopamine neurons (TH) [3, 6] | functional recovery of amphetamine-induced rotation ([4]; 6 months post grafting, CD sorted neurons with or without adalimumab) | time course and completeness of functional rescue vs CD sorted neurons alone ([4]; adalimumab co-injected mDA neurons, 1-6 months) | IC50 values against rodent GSK3β homologs (rodent GSK3β homologs) |
| --- | --- | --- | --- | --- | --- | --- | --- | --- | --- | --- | --- |
| adalimumab | abolished | 12,423 (mean)+1,859 (S.E.M) per 100,000 cells injected | 0.1175 | significantly improved | without affecting | significant increase | significantly increased | significantly increased | Robust functional recovery | trend towards an earlier and more complete functional rescue |  |
| Cc1c[nH]c(-c2cnc(NCCNc3ccc(C#N)cn3)nc2-c2ccc(Cl)cc2Cl)n1 [CHIR99021, 6-(2-(4-(2,4-dichlorophenyl)-5-(4-methyl-1H-imidazol-2-yl)pyrimidin-2-ylamino)ethylamino) nicotinonitrile] |  |  |  |  |  |  |  |  |  |  | nanomolar |
